The text below walks through data of ChEMBL document CHEMBL3244158, “Dimerization of coralyne and its propyl analogue and their association with DNA” (J Med Chem, 1979).

Active and inactive are the calls of the source. No cut-off for these calls is given here.

This test has as its system Calf thymus DNA. In words: Binding affinity to calf thymus DNA at 0.033 to 0.995 ligand to DNA ratio by spectrophotometer analysis. The test is classed as nucleic-acid assay. Particulars: Bos taurus.

Regarding `CCCc1c2cc(OC)c(OC)cc2cc2c3cc(OC)c(OC)cc3cc[n+]12`, the outcome was Active. To `COc1cc2cc3c4cc(OC)c(OC)cc4cc[n+]3c(C)c2cc1OC` belongs “Active”.
